Laboratory results reported in ChEMBL document CHEMBL1201862, “PubChem BioAssay data set” (2004).
Calls of active or inactive are those of the source.

What was measured:
[1] = HEK293 Cytotoxicity Assay Measured in Cell-Based System Using Plate Reader - 7071-01_Inhibitor_Dose_CherryPick_Activity_Set2.; format: functional
[2] = system: HEK293; assay: HEK293T cell cytotoxicity, dose response, cytotoxicity control, ATP luminescence, cherry-pick samples (AID 687005); format: functional, cell-based; conditions: Homo sapiens;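 further: cells exposed to compound for 48 hours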
[3] = A549 cell cytotoxicity, dose response, cytotoxicity control, plate reader, cherry-pick, antagonist series (AID 743412); format: functional, cell-based
[4] = MC4R antagonists, dose response, counter-screen for LGR2 antagonist project, cell-based, plate reader, cherry pick (AID 743444); format: functional;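 further: transfected HEK 293 cells stimulated with alpha-MSH peptide; potency of inhibitors of the alpha-MSH evoked signal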
[5] = LGR2 antagonists, dose response, cell-based, HEK293, CRE-luciferase reporter, cherry pick, set 2 (AID 743343); format: functional;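 further: transfected cells were stimulated with diluted bursicon conditioned medium after compound addition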
[6] = Luminescence Cell-Based Dose Confirmation to Identify Activators of 5'UTR Stem-Loop Driven Alpha-Synuclein mRNA Translation in H4 Neuroglioblastoma Cells. [Related pubchem assays: 1829 (Project Summary), 1814 (Primary HTS)]; format: functional
[7] = Luminescence Cell-Based Dose Response to Identify Activators of 5'UTR Stem-Loop Driven Prion Protein mRNA Translation in H4-C Neuroglioblastoma Cells. [Related pubchem assays: 1829 (Project Summary), 1814 (Primary HTS)]; format: functional
[8] = Luminescence Cell-Based Dose Response to Identify Activators of Luciferase Translation or Activity in H4-C Neuroglioblastoma Cells. [Related pubchem assays: 1829 (Project Summary), 1814 (Primary HTS)]; format: functional
[9] = Luminescence Cell-Based Dose Response HTS to Identify Activators of Luciferase Translation or Activity in H4 […] Cells. [Related pubchem assays: 1829 (Project Summary), 1814 (Primary HTS)]; format: functional
[10] = system: H4; assay: Luminescence Cell-Based Dose Response HTS to Identify Activators of 5'UTR Stem-Loop Driven Prion Protein mRNA Translation in H4 Neuroglioblastoma Cells. [Related pubchem assays: 1829 (Project Summary), 1814 (Primary HTS)]; format: functional; conditions: Homo sapiens
[11] = molecular target: Cytochrome P450 3A4 (Homo sapiens, UniProt P08684); conditions: Potency;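 further: confirmatory qHTS run detecting inhibitors and substrates of CYP3A4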
[12] = molecular target: T1, RNA-binding protein pos-1 (Caenorhabditis elegans, UniProt G5EF15); assay: inhibitors of POS-1/mex-3 RNA binding, dose response, biochemical, fluorescence polarization (AID 1964);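 further: purified POS-1 fused to maltose binding protein made in E. coli; potency of compounds blocking POS-1 binding to fluorescent RNA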
T1 sequence (G5EF15 whole entry): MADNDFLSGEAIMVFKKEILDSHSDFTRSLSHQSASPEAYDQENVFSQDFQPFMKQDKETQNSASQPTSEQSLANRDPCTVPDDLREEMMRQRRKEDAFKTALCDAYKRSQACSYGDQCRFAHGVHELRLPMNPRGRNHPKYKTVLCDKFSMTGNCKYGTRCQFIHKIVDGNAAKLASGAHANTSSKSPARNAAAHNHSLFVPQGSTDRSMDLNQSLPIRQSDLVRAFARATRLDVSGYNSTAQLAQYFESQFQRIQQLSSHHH

[13] = molecular target: T2, Histone-lysine N-methyltransferase NSD2 (Homo sapiens, UniProt O96028); format: biochemical
T2 sequence (O96028 whole entry): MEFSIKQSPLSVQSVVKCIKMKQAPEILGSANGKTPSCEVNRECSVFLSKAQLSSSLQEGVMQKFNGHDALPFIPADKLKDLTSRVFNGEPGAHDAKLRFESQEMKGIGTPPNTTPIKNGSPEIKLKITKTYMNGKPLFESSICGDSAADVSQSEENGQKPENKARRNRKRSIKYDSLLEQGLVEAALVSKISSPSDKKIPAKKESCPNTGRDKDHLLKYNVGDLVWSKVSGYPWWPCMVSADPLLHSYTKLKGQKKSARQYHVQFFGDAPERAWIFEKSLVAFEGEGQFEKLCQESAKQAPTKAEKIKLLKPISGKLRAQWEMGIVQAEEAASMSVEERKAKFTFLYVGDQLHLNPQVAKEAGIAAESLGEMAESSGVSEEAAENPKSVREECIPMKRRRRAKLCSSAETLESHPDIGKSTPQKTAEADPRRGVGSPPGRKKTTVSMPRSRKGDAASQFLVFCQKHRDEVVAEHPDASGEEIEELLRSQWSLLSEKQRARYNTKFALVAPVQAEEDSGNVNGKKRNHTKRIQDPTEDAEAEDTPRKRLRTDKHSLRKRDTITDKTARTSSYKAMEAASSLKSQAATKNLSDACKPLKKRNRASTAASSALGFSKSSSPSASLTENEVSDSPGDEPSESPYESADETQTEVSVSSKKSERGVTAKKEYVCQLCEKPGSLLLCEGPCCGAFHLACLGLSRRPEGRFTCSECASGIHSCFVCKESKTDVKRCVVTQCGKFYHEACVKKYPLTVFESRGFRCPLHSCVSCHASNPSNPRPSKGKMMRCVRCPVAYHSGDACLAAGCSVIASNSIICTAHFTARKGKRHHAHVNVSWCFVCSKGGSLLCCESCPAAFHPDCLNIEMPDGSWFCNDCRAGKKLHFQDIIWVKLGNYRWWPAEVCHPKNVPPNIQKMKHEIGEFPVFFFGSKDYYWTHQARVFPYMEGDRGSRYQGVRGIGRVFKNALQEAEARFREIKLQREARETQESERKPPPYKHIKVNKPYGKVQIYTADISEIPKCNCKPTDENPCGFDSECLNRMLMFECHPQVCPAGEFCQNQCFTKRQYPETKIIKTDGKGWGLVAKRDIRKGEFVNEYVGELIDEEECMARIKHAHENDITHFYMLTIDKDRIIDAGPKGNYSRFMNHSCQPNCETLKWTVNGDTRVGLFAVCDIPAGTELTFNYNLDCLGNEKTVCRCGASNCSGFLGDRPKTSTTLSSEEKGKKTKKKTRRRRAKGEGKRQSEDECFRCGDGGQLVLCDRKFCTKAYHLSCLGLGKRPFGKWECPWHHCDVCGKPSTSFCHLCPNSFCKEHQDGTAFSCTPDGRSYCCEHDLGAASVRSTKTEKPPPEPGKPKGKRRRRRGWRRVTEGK

[14] = molecular target: T3, Zinc finger protein mex-5 (Caenorhabditis elegans, UniProt Q9XUB2); assay: MEX-5/TCR-2 RNA interaction inhibitors, dose response, biochemical, C. elegans, fluorescence polarization (AID 1960)
T3 sequence (Q9XUB2 whole entry): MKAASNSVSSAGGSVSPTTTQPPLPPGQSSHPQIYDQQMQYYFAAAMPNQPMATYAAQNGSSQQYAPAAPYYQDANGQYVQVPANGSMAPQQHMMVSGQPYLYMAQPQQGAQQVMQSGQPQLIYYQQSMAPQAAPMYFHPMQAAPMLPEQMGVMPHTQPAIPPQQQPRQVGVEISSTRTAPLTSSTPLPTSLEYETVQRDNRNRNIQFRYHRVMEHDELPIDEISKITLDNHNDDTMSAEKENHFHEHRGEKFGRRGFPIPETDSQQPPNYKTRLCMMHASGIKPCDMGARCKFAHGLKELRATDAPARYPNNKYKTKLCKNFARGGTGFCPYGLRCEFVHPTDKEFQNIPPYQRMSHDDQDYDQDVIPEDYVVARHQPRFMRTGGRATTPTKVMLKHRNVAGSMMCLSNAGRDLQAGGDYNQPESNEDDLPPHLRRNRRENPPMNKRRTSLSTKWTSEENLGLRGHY

[15] = system: Vero; assay: Vero cell cytotoxicity, cytotoxicity control for flavivirus capping enzyme inhibitors (AID 588742); format: functional; conditions: Chlorocebus sabaeus
[16] = THP-1 cell cytotoxicity, dose response, cytotoxicity control for Vif-APOBEC3G degradation inhibitor project, THP-1 cells (AID 1117359); format: functional; conditions: Human immunodeficiency virus 1, THP-1
[17] = inhibitors of Vif binding to APOBEC3G peptide, primary screen, biochemical, TR-FRET, GST-Vif 1-94, biotin-A3G peptide, dose response retest (AID 1117319); format: functional;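 further: TR-FRET signal of purified GST-Vif binding a biotinylated A3G peptide; inhibitors lower the FRET signal by blocking Vif and A3G binding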
[18] = molecular target: Protein-tyrosine kinase 2-beta (Homo sapiens, UniProt Q14289);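 further: potency of inhibitors of PYK2 kinase phosphorylation of poly-GT substrate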
[19] = molecular target: Kallikrein-7 (Homo sapiens, UniProt P49862); assay: Fluorescence Intensity-based biochemical primary high throughput dose response assay to identify activators of kallikrein-7 (K7) zymogen.
Chain of Kallikrein-7 (P49862 whole entry): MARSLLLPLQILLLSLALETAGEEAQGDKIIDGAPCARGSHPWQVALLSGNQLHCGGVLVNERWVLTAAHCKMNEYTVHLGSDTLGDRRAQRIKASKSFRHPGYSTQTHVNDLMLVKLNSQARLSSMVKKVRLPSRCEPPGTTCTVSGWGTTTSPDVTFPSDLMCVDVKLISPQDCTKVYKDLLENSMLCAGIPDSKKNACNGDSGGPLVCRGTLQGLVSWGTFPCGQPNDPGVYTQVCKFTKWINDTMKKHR

Chain of Cytochrome P450 3A4 (P08684 whole entry, the tested form may be a part): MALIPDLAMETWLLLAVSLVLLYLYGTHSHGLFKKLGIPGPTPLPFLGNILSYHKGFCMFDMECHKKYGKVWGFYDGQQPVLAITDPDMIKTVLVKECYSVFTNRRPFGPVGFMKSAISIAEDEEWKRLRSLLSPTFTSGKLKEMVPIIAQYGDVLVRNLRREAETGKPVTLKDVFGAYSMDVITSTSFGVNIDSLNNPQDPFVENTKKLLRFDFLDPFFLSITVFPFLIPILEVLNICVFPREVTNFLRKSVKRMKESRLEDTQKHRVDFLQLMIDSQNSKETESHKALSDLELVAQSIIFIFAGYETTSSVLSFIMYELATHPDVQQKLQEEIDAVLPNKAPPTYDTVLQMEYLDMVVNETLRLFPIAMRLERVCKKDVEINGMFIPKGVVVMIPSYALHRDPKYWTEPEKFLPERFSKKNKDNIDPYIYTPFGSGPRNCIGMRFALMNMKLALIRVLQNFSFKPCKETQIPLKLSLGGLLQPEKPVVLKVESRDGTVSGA
Chain of Protein-tyrosine kinase 2-beta (Q14289 whole entry): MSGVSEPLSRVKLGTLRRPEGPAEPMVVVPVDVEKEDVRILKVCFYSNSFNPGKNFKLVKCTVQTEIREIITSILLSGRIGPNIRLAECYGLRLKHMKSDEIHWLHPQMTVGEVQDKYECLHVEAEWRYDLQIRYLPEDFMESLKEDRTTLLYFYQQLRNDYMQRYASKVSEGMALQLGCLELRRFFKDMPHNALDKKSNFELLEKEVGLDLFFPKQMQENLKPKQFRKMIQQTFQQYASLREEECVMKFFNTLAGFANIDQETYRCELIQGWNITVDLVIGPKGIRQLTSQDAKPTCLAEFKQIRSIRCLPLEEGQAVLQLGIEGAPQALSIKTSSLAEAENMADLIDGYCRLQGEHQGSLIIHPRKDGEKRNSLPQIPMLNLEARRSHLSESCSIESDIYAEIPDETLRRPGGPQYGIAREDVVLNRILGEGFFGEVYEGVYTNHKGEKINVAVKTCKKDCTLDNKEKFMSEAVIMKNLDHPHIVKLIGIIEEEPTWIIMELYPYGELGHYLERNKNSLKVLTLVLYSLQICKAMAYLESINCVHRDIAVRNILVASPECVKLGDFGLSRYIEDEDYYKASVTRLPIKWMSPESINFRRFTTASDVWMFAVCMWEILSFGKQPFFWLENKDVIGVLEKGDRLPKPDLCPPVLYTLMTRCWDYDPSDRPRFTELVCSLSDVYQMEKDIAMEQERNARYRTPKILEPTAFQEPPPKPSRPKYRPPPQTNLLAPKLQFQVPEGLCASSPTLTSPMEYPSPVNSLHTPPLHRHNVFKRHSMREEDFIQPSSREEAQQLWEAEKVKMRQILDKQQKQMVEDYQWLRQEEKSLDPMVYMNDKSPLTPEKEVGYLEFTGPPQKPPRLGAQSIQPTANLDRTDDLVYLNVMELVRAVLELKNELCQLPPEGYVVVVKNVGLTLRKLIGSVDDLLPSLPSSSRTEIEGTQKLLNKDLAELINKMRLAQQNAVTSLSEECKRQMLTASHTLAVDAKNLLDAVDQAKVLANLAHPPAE

C[C@@H]1CN([C@@H](C)CO)S(=O)(=O)c2ccc(C3=CCCC3)cc2O[C@@H]1CN(C)Cc1ccccc1F
AC50 [1]: 23.9 µM (active)
AC50 [2]: 23.9 µM (active)

Cc1ccccc1C(=O)Nc1ccc2c(c1)OCCO2
AC50 [3]: > 52 µM (inactive)
AC50 [4]: 11.1 µM (active)
AC50 [5]: 10.5 µM (active)

C[C@H]1CCCCO[C@H](CN(C)Cc2ccncc2)[C@@H](C)CN([C@@H](C)CO)C(=O)c2cc(NC(=O)CCCN(C)C)ccc2O1
AC50 [1]: 38.1 µM (active)
AC50 [2]: 38.1 µM (active)

O=C(/C=C/c1cnc2ccccc2n1)NC12CC3CC(CC(C3)C1)C2
EC50 [6]: 0.62 µM (active)
EC50 [7]: 0.434 µM (active)
EC50 [8]: 0.32 µM (active)
EC50 [9]: < 0.1 µM (active)
EC50 [10]: 0.921 µM (active)

CCN(CC)CCCn1c(-c2ccccc2)nc2c(N(CCOC)CCOC)nc(C)nc21
AC50 [11]: 20 µM (inconclusive)

N#CC(C#N)=Cc1cccn1-c1ccc(C(=O)O)cc1
EC50 [12]: > 300 µM (not active)
AC50 [13]: > 20 µM (inactive)
EC50 [14]: 160 µM (active)

C=C1C(=O)O[C@@H]2C3OC3(C)CC/C=C(\C)CC[C@@H]12 (some centres not stated)
AC50 [11]: 31.6 µM (inconclusive)

COc1cc2c(cc1OC)-c1c(OC)c(OC)c(C=O)c3c1[C@H](C2)N(C)CC3
AC50 [11]: 7.94 µM (inconclusive)

CNc1sc(C(=O)c2cccs2)c(N)c1-c1nc2ccccc2s1
CC50 [15]: > 40 µM (active)
CC50 [16]: 19.1 µM (active)
IC50 [17]: > 100 µM (active)

CCOC(=O)C1=C(c2ccccc2)OC(N)=C(C#N)C1c1cccs1 (configuration not stated)
IC50 [18]: > 69.5 µM (not active)

Cc1ccccc1-n1c2nc(=O)n(C)c(=O)c-2cc2ccccc21
EC50 [19]: 85.3 µM (inactive)

CC1(C)CC(=O)c2cnc(N3CCc4ccccc4C3)nc2C1
EC50 [6]: 0.283 µM (active)
EC50 [7]: 0.284 µM (active)
EC50 [8]: 0.268 µM (active)
EC50 [9]: < 0.1 µM (inconclusive)
